Here are results for one molecule from US20180021270A1, “METHODS FOR THE TREATMENT OF CANCER USING COENZYME Q10 IN COMBINATION WITH IMMUNE CHECKPOINT MODULATORS” (Berg LLC, priority 2016, published 2018).

The subject of assay [1] is Renca renal adenocarcinoma cells. The assay can be described thus: Cell viability (CellTiter-Fluor) of mouse syngeneic tumor cell line. The class given is cell-based. The conditions noted are these: 72 hours, 37° C. As for the experimental part: (§1) The sensitivity of mouse syngeneic tumor cell lines to Coenzyme Q10 was evaluated in vitro. Six mouse syngeneic tumor cell lines from different tissue types were exposed to increasing concentrations of Coenzyme Q10 (0-25 mM) at 37° C. for 72 hours. Cell viability was measured using CellTiter-Fluor kit (Promega, Madison, Wis.). Graphs and IC50 values were calculated using GraphPad Prism using data for at least three independent experiments. Mouse syngeneic tumor cell lines evaluated were Lewis lung carcinoma (LL2), hepatoma (Hepa1-6) skin melanoma (B16F10), colon cancer (CT26), mammary gland adenocarcinoma (EMT6/P), and renal adenocarcinoma (Renca). As shown in FIGS. 24A-24F, Coenzyme Q10 reduced viability of all of the tumor cell lines in a dose dependent manner.

In assay [2] the test system is Hepa1-6 hepatoma cells. Described as above. The conditions noted are these: Hepa1-6, 72 hours, 37° C. It counts as cell-based. On the procedure: as §1
Assay [3] has as its system EMT6/P mammary gland adenocarcinoma cells. The description is as above. The class given is cell-based. The conditions noted are these: 72 hours, 37° C. As for the experimental part: as §1
Assay [4] concerns PD-L1 protein on the surface of breast cancer cells (MDA-MB231). The assay can be described thus: Flow cytometry of PD-L1 protein on the cancer cell surface. The class given is cell-based, human. On the procedure: (§2) Flow cytometry analysis with a fluorescent probe for PD-L1 was used to determine the expression of PD-L1 protein on the surface of various human cancer cell lines. The cells were treated with 100 μM Coenzyme Q10, or the IC50 of Coenzyme Q10 for each cell line. […] The increased PD-L1 levels observed in breast cancer cells in response to Coenzyme Q10 treatment were not due to changes in cell populations.

The test system of assay [5] is CTLA-4. Briefly: Inhibitory receptor surface expression on T cells within PBMCs. It counts as cell-based, human. As to conditions: PHA-stimulated T cells, 24 hours, dose dependent. As for the experimental part:
(§3) Expression of the inhibitory receptor proteins PD-1 and CTLA-4 on the surface of T cells within PBMCs was also determined. The cells were treated with Coenzyme Q10 for 24 hours. Expression of immune checkpoint receptors was measured by staining cells with phenotypic markers for CD3/CD8, or CD3/CD4 in combination with antibodies against PD-1 or CTLA-4. Live cells were identified as 7 AAD negative lymphocytes followed by T cell phenotype characterization of total CD3+ T cells, cytotoxic T cells, or helper T cells. PD-1 or CTLA-4 cell surface expression was measured as mean fluorescence intensity on live T cells. Cells from three donors were tested. As shown in FIGS. 20A and 20B, Coenzyme Q10 decreased PD-1 and CTLA-4 expression on the surface of PHA-stimulated T cells in a dose dependent manner.

For assay [6], the system named is PD-1. Described as above. It counts as cell-based, human. The conditions noted are these: PHA-stimulated T cells, 24 hours, dose dependent. On the procedure: as §3
For assay [7], the system named is mouse syngeneic tumor cell lines (LL2, Hepa1-6, B16F10, CT26, EMT6/P, Renca). The assay can be described thus: Cell viability (CellTiter-Fluor), all six mouse syngeneic tumor cell lines. As to conditions: 0-25 mM, 72 hours, dose dependent. It counts as cell-based. On the procedure: as §1
Assay [8] has as its system PD-L1 protein on the surface of lung cancer cells (A549). The assay can be described thus: Flow cytometry of PD-L1 protein on the cancer cell surface. It counts as cell-based, human. The conditions noted are these: A549, 72 hours after treatment. As for the experimental part: as §2
(§4) Human pancreatic (MIA PaCa-2), ovarian (SKOV-3), and lung (A549) cancer cell lines treated with Coenzyme Q10 were also analyzed by flow cytometry to determine PD-L1 protein expression on the cancer cell surface.
For orientation: In flow cytometry, cells or beads pass a laser one at a time.

For assay [9], the system named is PD-L1 protein on the surface of ovarian cancer cells (SKOV-3). The assay is described as above. It counts as cell-based, human. As to conditions: SKOV-3, 72 hours after treatment. As for the experimental part:
as §2, §4

Assay [10] deals with PD-L1 protein on the surface of pancreatic cancer cells (MIA PaCa-2). The assay is described as above. It counts as cell-based, human. The conditions noted are these: MIA PaCa-2, 72 hours after treatment. As for the experimental part: as §2, §4
Assay [11] relates to IL-2. Briefly: Cytokine ELISA in PBMC supernatants. It counts as cell-based, human. The conditions noted are these: during PHA activation, various concentrations of Coenzyme Q10. On the procedure:
(§5) Cytokines were measured in the PBMCs according to the manufacturer's protocol for R&D Quantikine ELISA kits (R&D Systems, Inc., Minneapolis, Minn.) specific to each cytokine. PBMCs were collected from 3 donors (D003F, D004F and D005F).

The test system of assay [12] is interferon-γ (IFN-γ). Briefly: Cytokine ELISA in PBMC supernatants. The class given is cell-based, human. The conditions noted are these: during PHA activation, various concentrations of Coenzyme Q10. On the procedure:
as §5
(In an ELISA, binding on a coated surface is turned into a signal by an enzyme label.)

The test system of assay [13] is IL-10. Briefly: Cytokine ELISA in PBMC supernatants. The conditions noted are these: during PHA activation, various concentrations of Coenzyme Q10. It counts as cell-based, human. On the procedure:
as §5

Assay [14] deals with CD3 positive murine T cells within Balb/c PBMCs. Briefly: Viability of murine CD3 positive T cells within PBMCs. It counts as cell-based, mouse. As to conditions: 0-800 μM, 24 hours, dose-dependent, non-stimulated and PHA-stimulated cells. On the procedure:
The effects of Coenzyme Q10 on murine immune cells were also evaluated to determine whether Coenzyme Q10 has similar effects as those described above for human immune cells. For example, the viability of murine CD3 positive T cells within PHA-stimulated or unstimulated Balb/c PBMCs was determined. Cells were concurrently treated with Coenzyme Q10 (0, 12.5, 50, 200, 400 or 800 μM) for 24 hours and analyzed by flow cytometry using surface marker antibody for αCD3 and viability stains Annexin V/7AAD. CD3 positive and CD3 negative cell populations were identified within total cell population excluding debris, and viability was determined by plotting Annexin V-FITC vs. 7AAD. Two experiments using two different pools of Balb/c PBMCs and one experiment using C57B1/6 PBMCs were conducted. As shown in FIGS. 21A and 21B, Coenzyme Q10 increased the viability of CD3 positive murine T cells in a dose-dependent manner for both non-stimulated and PHA-stimulated cells.

For assay [15], the system named is colon (HT29) cancer cells. Briefly: mRNA expression of PD1, PD-L1 and PD-L2 in cancer cells treated with Coenzyme Q10. The class given is cell-based, human. As to conditions: 50 μM Coenzyme Q10, relative to untreated cells (p<0.05; n=3). On the procedure: Levels of mRNA expression of the immune checkpoints PD1, PD-L1 and PD-L2 were determined in human breast (MDA-MB231), prostate (LnCAP), ovarian (SKOV-3), colon (HT29), lung (A549), liver (Huh-7), and pancreatic (MIA PaCa-2) cancer cells treated with 50 μM Coenzyme Q10, 100 μM Coenzyme Q10, or the IC50 of Coenzyme Q10 for each cell line.

For orientation: IC50 means the concentration needed to halve the response being measured. Low readings indicate higher potency, high ones lower potency. Turning to `COC1=C(OC)C(=O)C(C/C=C(\C)CC/C=C(\C)CC/C=C(\C)CC/C=C(\C)CC/C=C(\C)CC/C=C(\C)CC/C=C(\C)CC/C=C(\C)CC/C=C(\C)CCC=C(C)C)=C(C)C1=O` [Coenzyme Q10], the results for the IC50 in assay [1], in assay [2] and in assay [3] were 3750 µM, 912 µM and 2200 µM, respectively. The “Amount of PD-L1 protein on the cell surface” value in [4] (MDA-MB231, 3 hours after treatment) is “significantly increased”; in assay [4] (MDA-MB231, 72 hours after treatment), “significantly increase”; in assay [9], “small but significant increase”; in [10] it was “significantly increased”. For the same molecule, the “Amount of PD-L1 protein on the cell surface, treated vs untreated” value in [4] (MDA-MB231, 6 hours after treatment) is “no significant difference”. For the same molecule, the “Percentage of cells having PD-L1 protein on their surface” value in assay [4] (MDA-MB231, 72 hours after treatment, 100 μM or IC50 of Coenzyme Q10) is on record as “did not significantly change”; in assay [8], “did not significantly change”; in assay [9], “did not significantly change”; in assay [10] it was “significantly increased”. Besides, the “Cell populations, treated vs untreated cells” value in [4] (MDA-MB231, flow cytometry) is reported as “no changes”. In addition, the “CTLA-4 expression on the surface of T cells (mean fluorescence intensity)” value in assay [5] was “decreased”. Besides, the “PD-1 expression on the surface of T cells (mean fluorescence intensity)” value in [6] is on record as “decreased”. In addition, the “Viability of all of the tumor cell lines” value in assay [7] is reported as “reduced”. In assay [8], the “Amount of PD-L1 on the cell surface” value is listed as “did not significantly change”. The “IL-2 level in supernatant” value in assay [11] was “increased”. The “IFN-γ level in supernatant” value in assay [12] is listed as “increased”. For the same molecule, the “IL-10 level in supernatant” value in assay [13] is “dose-dependently decreased”. Moreover, the “Viability of CD3 positive murine T cells” value in assay [14] was “increased”. Besides, the “PD-L1 mRNA expression” value in assay [15] was “significant increase”.
